Biological target: Neuronal acetylcholine receptor subunit alpha-7 (Homo sapiens, UniProt P36544)
Assay: Agonist activity at nAChR alpha-7 expressed in Xenopus oocytes
Assay type: functional, cell-based, Oocyte

Chain of Neuronal acetylcholine receptor subunit alpha-7 (P36544 whole entry): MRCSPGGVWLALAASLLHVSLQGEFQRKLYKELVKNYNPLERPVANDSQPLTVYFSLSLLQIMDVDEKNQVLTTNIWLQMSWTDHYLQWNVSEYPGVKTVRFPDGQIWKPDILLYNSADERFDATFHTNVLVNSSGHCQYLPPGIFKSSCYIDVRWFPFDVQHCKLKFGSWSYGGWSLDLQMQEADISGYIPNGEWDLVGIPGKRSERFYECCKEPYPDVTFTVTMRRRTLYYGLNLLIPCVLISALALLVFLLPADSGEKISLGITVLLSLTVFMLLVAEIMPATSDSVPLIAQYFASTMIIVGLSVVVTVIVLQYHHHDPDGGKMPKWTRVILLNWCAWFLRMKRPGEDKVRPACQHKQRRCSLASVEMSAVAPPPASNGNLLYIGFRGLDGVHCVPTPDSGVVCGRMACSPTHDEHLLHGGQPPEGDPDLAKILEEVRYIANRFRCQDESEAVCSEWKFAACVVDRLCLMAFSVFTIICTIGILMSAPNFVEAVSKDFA

SMILES | EC50 [µM]
C(=C1\CN2CCC1CC2)/c1ccccc1 | 1.5
COc1ccc(/C=C2/CN3CCC2CC3)cc1 | 1.3
